Values quoted from earlier work, collected in patent US4690936A (priority 1980, dated 1987).
Non-standard residues stand in square brackets, D forms with d. Residues, ends and D or L forms follow the SMILES beside them. No end group written: not given here. pGlu = O=C1CC[C@@H](C(=O)O)N1

Test system: ACE
Conditions: competitive substrate rather than true inhibitor

Compound	type of ACE interaction (lower Km than angiotensin I)
C[C@H](NC(=O)[C@H](Cc1c[nH]c2ccccc12)NC(=O)[C@H](CCCCN)NC(=O)[C@@H]1CCC(=O)N1)C(=O)N1CCC[C@H]1C(=O)O [BPP5a, <GluLysTrpAlaPro] ([pGlu]KWAP-OH)	competitive substrates
RPPGFSPFR [bradykinin]	competitive substrates
